Assay results published in patent US20250312258A1, “2,3-PYRROLIDINEDIONE CONJUGATES AND METHODS OF USING THEREOF” (North Carolina State University, priority 2022, published 2025).
Converted amounts (≈) assume the structure as drawn. Like-named read-outs stand apart in the source and are kept apart here.

Tests used:
Assay type in all cases: cell-based
[1] = test system: MSSA; assay: MIC against MSSA strain panel; conditions: Staphylococcus aureus, the 4th table, read-out: MIC
[2] = test system: ATCC 29212 E. faecalis; assay: MIC against ATCC 29212 E. faecalis; conditions: Enterococcus faecalis, ATCC29212, ATCC 29212 E. faecalis, read-out: MIC
[3] = test system: S. pneumoniae; assay: MIC against S. pneumoniae strain panel; conditions: Streptococcus pneumoniae, read-out: MIC
[4] = test system: Group A Strep; assay: MIC against Group A Strep strain panel; conditions: read-out: MIC
[5] = test system: Group B Strep; assay: MIC against Group B Strep strain panel; conditions: read-out: MIC
[6] = test system: E. coli; assay: MIC against E. coli strains; conditions: the 4th table

CCC1C(c2ccc(C(F)(F)F)cc2)=C(O)C(=O)N1CCCNCCCCNC (centres unmarked) [Compound 8]
MIC ([1]; VGP16-100 MSSA): 1 µg/mL (≈ 2.42 µM) | MIC ([1]; VGP16-101 MSSA): 1 µg/mL (≈ 2.42 µM) | MIC ([1]; VGP16-116 MSSA): 1 µg/mL (≈ 2.42 µM) | MIC ([1]; VGP16-117 MSSA): 1 µg/mL (≈ 2.42 µM) | MIC ([2]; the 4th table): 1 µg/mL (≈ 2.42 µM) | MIC ([2]; the 6th table): 4 µg/mL (≈ 9.67 µM) | MIC ([3]; ATCC49619, ATCC 49619 S. pneumoniae, CA-MHB w/5% LHB, the 4th table): 0.25 µg/mL (≈ 0.605 µM) | MIC ([3]; ATCC49619, ATCC 49619 S. pneumoniae, the 7th table): 0.25 µg/mL (≈ 0.605 µM) | MIC ([3]; CO314937 S. pneumoniae, CA-MHB w/5% LHB, the 4th table): 0.25 µg/mL (≈ 0.605 µM) | MIC ([3]; CT3-5008 S. pneumoniae, the 7th table): 0.25 µg/mL (≈ 0.605 µM) | MIC ([3]; CT3-5803 S. pneumoniae, the 7th table): 0.25 µg/mL (≈ 0.605 µM) | MIC ([3]; CT3-8501 S. pneumoniae, the 7th table): 0.25 µg/mL (≈ 0.605 µM) | MIC ([3]; CT4-3048 S. pneumoniae, the 7th table): 0.25 µg/mL (≈ 0.605 µM) | MIC ([3]; CT4-9046 S. pneumoniae, the 7th table): ≤ 0.125 µg/mL | MIC ([3]; CT4-9693 S. pneumoniae, the 7th table): 0.25 µg/mL (≈ 0.605 µM) | MIC ([3]; CT5-6541 S. pneumoniae, the 7th table): 0.25 µg/mL (≈ 0.605 µM) | MIC ([3]; CT5-8032 S. pneumoniae, the 7th table): 0.25 µg/mL (≈ 0.605 µM) | MIC ([3]; CT5-9124 S. pneumoniae, the 7th table): 0.25 µg/mL (≈ 0.605 µM) | MIC ([3]; CT6-0670 S. pneumoniae, the 7th table): 0.25 µg/mL (≈ 0.605 µM) | MIC ([3]; CT6-7691 S. pneumoniae, the 7th table): 0.25 µg/mL (≈ 0.605 µM) | MIC ([3]; CT0200-2241 S. pneumoniae, the 7th table): 0.25 µg/mL (≈ 0.605 µM) | MIC ([3]; CT0200-2730 S. pneumoniae, the 7th table): 0.5 µg/mL (≈ 1.21 µM) | MIC ([3]; MD77773 S. pneumoniae, CA-MHB w/5% LHB, the 4th table): 0.25 µg/mL (≈ 0.605 µM) | MIC ([4]; 2007-11 Group A Strep, the 8th table): 0.25 µg/mL (≈ 0.605 µM) | MIC ([4]; 2007-28 Group A Strep, the 8th table): < 0.125 µg/mL | MIC ([4]; 2007-49 Group A Strep, the 8th table): ≤ 0.125 µg/mL | MIC ([4]; 2007-73 Group A Strep, the 8th table): ≤ 0.125 µg/mL | MIC ([4]; 2007-107 Group A Strep, the 8th table): 0.25 µg/mL (≈ 0.605 µM) | MIC ([4]; 2007-1101 Group A Strep, the 8th table): ≤ 0.125 µg/mL | MIC ([4]; 2008-06 Group A Strep, the 8th table): ≤ 0.125 µg/mL | MIC ([4]; 2008-45 Group A Strep, the 8th table): ≤ 0.125 µg/mL | MIC ([4]; 2008-818 Group A Strep, CA-MHB w/5% LHB, the 4th table): ≤ 0.125 µg/mL | MIC ([4]; 2008-1565 Group A Strep, the 8th table): 0.25 µg/mL (≈ 0.605 µM) | MIC ([4]; 2008-1692 Group A Strep, the 8th table): 0.25 µg/mL (≈ 0.605 µM) | MIC ([4]; 2008-1732 Group A Strep, CA-MHB w/5% LHB, the 4th table): ≤ 0.125 µg/mL | MIC ([4]; 2009-8 Group A Strep, the 8th table): 0.25 µg/mL (≈ 0.605 µM) | MIC ([4]; 2009-37 Group A Strep, CA-MHB w/5% LHB, the 4th table): ≤ 0.125 µg/mL | MIC ([4]; 2009-106 Group A Strep, the 8th table): 0.25 µg/mL (≈ 0.605 µM) | MIC ([4]; 2009-109 Group A Strep, the 8th table): ≤ 0.125 µg/mL | MIC ([4]; 2009-114 Group A Strep, the 8th table): 0.25 µg/mL (≈ 0.605 µM) | MIC ([4]; 2009-136 Group A Strep, the 8th table): ≤ 0.125 µg/mL | MIC ([5]; 2008-57 Group B Strep, the 9th table): 0.25 µg/mL (≈ 0.605 µM) | MIC ([5]; 2008-70 Group B Strep, the 9th table): ≤ 0.125 µg/mL | MIC ([5]; 2008-87 Group B Strep, CA-MHB w/5% LHB, the 4th table): 0.25 µg/mL (≈ 0.605 µM) | MIC ([5]; 2008-115 Group B Strep, the 9th table): 0.25 µg/mL (≈ 0.605 µM) | MIC ([5]; 2009-20 Group B Strep, the 9th table): 0.25 µg/mL (≈ 0.605 µM) | MIC ([5]; 2009-40 Group B Strep, the 9th table): 0.25 µg/mL (≈ 0.605 µM) | MIC ([5]; 2009-43 Group B Strep, the 9th table): ≤ 0.125 µg/mL | MIC ([5]; 2009-51 Group B Strep, the 9th table): ≤ 0.125 µg/mL | MIC ([5]; 2009-57 Group B Strep, the 9th table): 0.25 µg/mL (≈ 0.605 µM) | MIC ([5]; 2009-59 Group B Strep, the 9th table): 0.25 µg/mL (≈ 0.605 µM) | MIC ([5]; 2009-60 Group B Strep, the 9th table): 0.25 µg/mL (≈ 0.605 µM) | MIC ([5]; 2009-61 Group B Strep, CA-MHB w/5% LHB, the 4th table): 0.25 µg/mL (≈ 0.605 µM) | MIC ([5]; 2009-62 Group B Strep, CA-MHB w/5% LHB, the 4th table): ≤ 0.125 µg/mL | MIC ([5]; J4182 Group B Strep, the 9th table): ≤ 0.125 µg/mL | MIC ([5]; J4183 Group B Strep, the 9th table): 0.25 µg/mL (≈ 0.605 µM) | MIC ([5]; J4185 Group B Strep, the 9th table): 0.25 µg/mL (≈ 0.605 µM) | MIC ([5]; J4186 Group B Strep, the 9th table): 0.25 µg/mL (≈ 0.605 µM) | MIC ([5]; J4222 Group B Strep, the 9th table): 0.25 µg/mL (≈ 0.605 µM) | MIC ([6]; AR-137 E. coli): >64 µg/mL | MIC ([6]; Escherichia coli, ATCC25922, ATCC 25922 E. coli, read-out: MIC): > 64 µg/mL | MIC ([6]; Escherichia coli, AR-451 E. coli, read-out: MIC): > 64 µg/mL
